Source: patent US20060025474A1, “Bisphenyl compounds useful as vitamin D3 receptor agonists” (priority 2004, published 2006)

Tested on: ECAC2 mRNA in Caco-2 cells
Assay type: cell-based
Procedure: The mRNA Expression Assay of ECAC2 in Caco-2 Cells
The dispersed cells were plated in 48-well plate at a concentration of 6.3×10^4 cells/well and incubated for 4 days at 37° C. The culture medium (Dulbecco's Modified Eagle Medium (D-MEM) without NaHCO3 with 44 mM NaHCO3, 1 mM non-essential amino acids, and 2 mM L-glutamine, 90%; fetal bovine serum, 10%) was then replaced with the same medium containing various concentrations of LG190178 (the compound disclosed in WO00/10958 and the corresponding U.S. Pat. No. 6,218,430 B1) or the compounds of the present invention, and cells were cultured for 1 day at 37° C. The culture medium containing the compounds was changed twice per day.
Total RNA Isolation from Caco-2 Cell
Total RNA was isolated from Caco-2 cell following ABI PRISM™ 6100 Nucleic Acid PrepStation protocol from Applied Biosystems.
Real Time RT-PCR Assay of ECAC2
ECAC2 mRNA expression was determined using TaqMan One-step RT-PCR Master Mix Reagents Kit and PRISM7000 systems from Applied Biosystems.
Primer information and cycle conditions are 1)ECAC2, forward 5′-[…]-3′, reverse 5′-GTCCTCTGTCTGGMGATGA-3′, Taqman probe 5′-[…]-3′, 55 cycles, annealing temperature (Ta)=60° C.; 2)GAPDH, forward 5′-GMGGTGMGGTCGGAGTC-3′, reverse 5′-GMGATGGTGATGGGATTTC-3′, Taqman probe 5′-[…]-3′, 55 cycles, Ta=60° C. ECAC2 mRNA values were normalized for the expression of GAPDH mRNA within each sample.
Comparison of ECAC2 mRNA Value
The EC50 values of ECAC2 mRNA values were analyzed by Emax models. The ECAC2 mRNA ratio was calculated as the ratio of the EC50 value of the compounds to that of LG190178. ECAC2 is a channel-like transporter mediating intestinal calcium absorption. It is described in J Biol Chem. Aug. 6, 1999; 274(32):22739-46 for example.

SMILES | ECaC-2 mRNA induction activity in Caco-2 cells [%]
CCC(CC)(c1ccc(/C=C/C(O)(C(F)(F)F)C(F)(F)F)c(C)c1)c1ccc(OCCCCc2nnn[nH]2)c(C)c1 [Example 115, (E)-4-[4-(1-ethyl-1-{3-methyl-4-[4-(1 H-tetrazol-5-yl)-butoxy]-phenyl}-propyl)-2-methyl-phenyl]-1,1,1-trifluoro-2-trifluoromethyl-but-3-en-2-ol] | 91
CCC(CC)(c1ccc(/C=C/C2(O)CCCC2)c(C)c1)c1ccc(OCCCCCN)c(C)c1 [Example 121, 1-[(E)-2-(4-{1-[4-(5-Amino-pentyloxy)-3-methyl-phenyl]-1-ethyl-propyl}-2-methyl-phenyl)-vinyl]-cyclopentanol] | 75
CCC(CC)(c1ccc(/C=C/C(O)(C(F)(F)F)C(F)(F)F)c(C)c1)c1ccc(OCCCCCN)c(C)c1 [Example 125, (E)4-(4-{1-[4-(5-Amino-pentyloxy)-3-methyl-phenyl]-1-ethyl-propyl}-2-methyl-phenyl)-1,1,1-trifluoro-2-trifluoromethyl-but-3-en-2-ol] | <10
CCC(CC)(c1ccc(C#CC(O)(C(F)(F)F)C(F)(F)F)c(C)c1)c1ccc(OC[C@H](O)CCCO)c(C)c1 [Example 152, (R)-5-(4-{1-Ethyl-1-[3-methyl-4-(4,4,4-trifluoro-3-hydroxy-3-trifluoromethyl-but-1-ynyl)-phenyl]-propyl}-2-methyl-phenoxy)-pentane-1,4-diol] | 586
CCC(CC)(c1ccc(C#CC(O)(C(F)(F)F)C(F)(F)F)c(C)c1)c1ccc(OC[C@@H](O)CCCO)c(C)c1 [Example 153, (S)-5-(4-{1-Ethyl-1-[3-methyl-4-(4,4,4-trifluoro-3-hydroxy-3-trifluoromethyl-but-1-ynyl)-phenyl]-propyl}-2-methyl-phenoxy)-pentane-1,4-diol] | 1662
CCC(CC)(c1ccc(/C=C/C(O)(C(F)(F)F)C(F)(F)F)c(C)c1)c1ccc(OC[C@H](O)CCCO)c(C)c1 [Example 154, (R)-5-(4-{1-Ethyl-1-[3-methyl4-((E)-4,4,4-trifluoro-3-hydroxy-3-trifluoromethyl-but-1-enyl)-phenyl]-propyl}-2-methyl-phenoxy)-pentane-1,4-diol] | 1784
CCC(CC)(c1ccc(/C=C/C(O)(C(F)(F)F)C(F)(F)F)c(C)c1)c1ccc(OC[C@H]2CCCO2)c(C)c1 [Example 155, (E)4-[4-(1-Ethyl-1-{3-methyl4-[(R)-1-(tetrahydro-furan-2-yl)methoxy]-phenyl}-propyl)-2-methyl-phenyl]-11,11-trifluoro-2-trifluoromethyl-but-3-en-2-ol] | 86
CCC(CC)(c1ccc(/C=C/C(O)(C(F)(F)F)C(F)(F)F)c(C)c1)c1ccc(OC[C@@H]2CCCO2)c(C)c1 [Example 157, (E)4-[4-(1-Ethyl-1-{3-methyl-4-[(S)-1-(tetrahydro-furan-2-yl)methoxy]-phenyl}-propyl)-2-methyl-phenyl]-1,1,1-trifluoro-2-trifluoromethyl-but-3-en-2-ol] | 1647
CCC(CC)(c1ccc(C#CCCCC(=O)O)c(C)c1)c1ccc(C#CC(O)(C(F)(F)F)C(F)(F)F)c(C)c1 [Example 192, 6-(4-{1-Ethyl-1-[3-methyl-4-(4,4,4-trifluoro-3-hydroxy-3-trifluoromethyl-but-1-ynyl)-phenyl]-propyl}-2-methyl-phenyl)-hex-5-ynoic acid] | 292
CCC(CC)(c1ccc(OCC(O)CO)c(C)c1)c1ccc(OCC(O)C(C)(C)C)c(C)c1 (stereo not shown) [LG190178, reference compound] | 100

More lines, now with the values ahead:

ECaC-2 mRNA induction activity in Caco-2 cells [%] | SMILES
12 | CCC(O)(/C=C/c1ccc(C(CC)(CC)c2ccc(OCCCCCN)c(C)c2)cc1C)CC [Example 119, (E)-1-(4-{1-[4-(5-Amino-pentyloxy)-3-methyl-phenyl]-1-ethyl-propyl}-2-methyl-phenyl)-3-ethyl-pent-1-en-3-ol]
75 | CCC(O)(/C=C/c1ccc(C(CC)(CC)c2ccc(OCc3ccc(C(=O)O)cc3)c(C)c2)cc1C)CC [Example 147, 4-(4-{I-Ethyl-1-[4-((E)-3-ethyl-3-hydroxy-pent-1-enyl)-3-methyl-phenyl]-propyl}-2-methyl-phenoxymethyl)-benzoic acid]
4760 | CCC(CC)(c1ccc(/C=C/C(O)(C(F)(F)F)C(F)(F)F)c(C)c1)c1ccc(OC[C@@H](O)CCCO)c(C)c1 [Example 156, (S)-5-(4-{1-Ethyl-1-[3-methyl4-((E)4,4,4-trifluoro-3-hydroxy-3-trifluoromethyl-but-1-enyl)-phenyl]-propyl}-2-methyl-phenoxy)-pentane-1,4-diol]
2017 | CCC(O)(/C=C/c1ccc(C(CC)(CC)c2ccc(OC[C@@H](O)CCC(=O)O)cc2)cc1C)CC [Example 165, (S)-5-(4-{1-Ethyl-1-[4-((E)-3-ethyl-3-hydroxy-pent-1-enyl)-3-methyl-phenyl]-propyl}-phenoxy)4-hydroxy-pentanoic acid]
86 | CCC(O)(/C=C/c1ccc(C(CC)(CC)c2cc(C)c(OC[C@@H]3CCC(=O)O3)c(C)c2)cc1C)CC [Example 166, (S)-5-(4-{1-Ethyl-1-[4-((E)-3-ethyl-3-hydroxy-pent-1-enyl)-3-methyl-phenyl]-propyl}-2,6-dimethyl-phenoxymethyl)-dihydro-furan-2-one]
323 | CCC(O)(/C=C/c1ccc(C(CC)(CC)c2cc(C)c(OC[C@@H](O)CCC(=O)O)c(C)c2)cc1C)CC [Example 167, (S)-5-(4-{1-Ethyl-1-[4-((E)-3-ethyl-3-hydroxy-pent-1-enyl)-3-methyl-phenyl]-propyl}-2,6-dimethyl-phenoxy)-4-hydroxy-pentanoic acid]
191 | CCCc1cc(C(CC)(CC)c2ccc(OC[C@@H](O)CCC(=O)O)c(C)c2)ccc1/C=C/C(O)(CC)CC [Example 170, (S)-5-(4-{1-Ethyl-1-[4-((E)-3-ethyl-3-hydroxy-pent-1-enyl)-3-propyl-phenyl]-propyl}-2-methyl-phenoxy)4-hydroxy-pentanoic acid]
57 | CCC(CC)(c1ccc(CCC(O)C(C)(C)C)c(C)c1)c1ccc(OC[C@@H](O)CCCC(=O)O)c(C)c1 (stereo partly drawn) [Example 186, 6-(4-{1-Ethyl-1-[4-(3-hydroxy-4,4-dimethyl-pentyl)-3-methyl-phenyl]-propyl}-2-methyl-phenoxy)-5(S)-hydroxy-hexanoic acid]
545 | CCC(CC)(c1ccc(CCC(O)C(C)(C)C)c(C)c1)c1ccc(OC[C@@H](O)CCCC(=O)O)c(C)c1 (stereo partly drawn) [Example 187, 6-(4-{1-Ethyl-1-[4-(3-hydroxy-4,4-dimethyl-pentyl)-3-methyl-phenyl]-propyl}-2-methyl-phenoxy)-5(S)-hydroxy-hexanoic acid]
22 | CCC(O)(/C=C/c1ccc(C(CC)(CC)c2ccc(OC[C@H]3CCCC(=O)O3)c(C)c2)cc1C)CC [Example 190, 6(R)-(4-{1-Ethyl-1-[4-((E)-3-ethyl-3-hydroxy-pent-1-enyl)-3-methyl-phenyl]-propyl}-2-methyl-phenoxymethyl)-tetrahydro-pyran-2-one]
135 | CCC(O)(/C=C/c1ccc(C(CC)(CC)c2ccc(OCC(=O)NCCN)c(C)c2)cc1C)CC [Example 195, (E)-N-(2-Amino-ethyl)-2-(4-{1-ethyl-1-[4-(3-ethyl-3-hydroxy-pent-1-enyl)-3-methyl-phenyl]-propyl}-2-methyl-phenoxy)-acetamide]
271 | CCC(O)(/C=C/c1ccc(C(CC)(CC)c2ccc(OCC(=O)CCC(=O)O)c(C)c2)cc1C)CC [Example 198, (E)-5-(4-{1-Ethyl-1-[4-(3-ethyl-3-hydroxy-pent-1-enyl)-3-methyl-phenyl]-propyl}-2-methyl-phenoxy)-4-oxo-pentanoic acid]
